From the NIST ThermoML archive (doi:10.1016/j.jct.2012.03.034)
± gives the expanded uncertainty stated by the source.

What was measured:
[1] = 298.15 K, 101.33 kPa, Liquid; for speed of sound: Linear variable-path acoustic interferometer; for mass density: Vibrating tube method; for viscosity: dual vibrating plate viscometer, AandD Co. Ltd Model SV-10
[2] = xn = mol fraction of the nth substance listed; conditions: 101 kPa, Liquid, x2 = 0; for speed of sound: Linear variable-path acoustic interferometer; for mass density: Vibrating tube method; for viscosity: dual vibrating plate viscometer, AandD Co. Ltd Model SV-10

Row | Structure (SMILES) | speed of sound [1] [m/s] | mass density [1] [kg/m3] | viscosity [1] [mPa·s] | speed of sound ([2]; 298.15 K) [m/s] | mass density ([2]; 298.15 K) [kg/m3] | viscosity ([2]; 298.15 K) [mPa·s] | speed of sound ([2]; 303.15 K) [m/s] | mass density ([2]; 303.15 K) [kg/m3] | viscosity ([2]; 303.15 K) [mPa·s] | speed of sound ([2]; 308.15 K) [m/s] | mass density ([2]; 308.15 K) [kg/m3] | viscosity ([2]; 308.15 K) [mPa·s] | speed of sound ([2]; 313.15 K) [m/s] | mass density ([2]; 313.15 K) [kg/m3] | viscosity ([2]; 313.15 K) [mPa·s]
1 | CN1CCCC1=O [N-methylpyrrolidone] | 1552 ± 2 | 1025.9 ± 0.31 | 1.66 ± 0.03 | – | – | – | – | – | – | – | – | – | – | – | –
2 | CN1CCCC1=O [N-methylpyrrolidone] + CC(=O)O.CCN(CC)CC | – | – | – | 1572 ± 2 | 1025.9 ± 0.3 | 1.66 ± 0.03 | 1552 ± 2 | 1023.74 ± 0.3 | 1.49 ± 0.03 | 1528 ± 2 | 1019.25 ± 0.3 | 1.39 ± 0.03 | 1520 ± 2 | 1014.74 ± 0.3 | 1.31 ± 0.03
3 | CN1CCCC1=O [N-methylpyrrolidone] + CC(=O)[O-].CC[NH2+]CC | – | – | – | 1572 ± 2 | 1025.9 ± 0.3 | 1.66 ± 0.03 | 1552 ± 2 | 1023.74 ± 0.3 | 1.49 ± 0.03 | 1528 ± 2 | 1019.25 ± 0.3 | 1.39 ± 0.03 | 1520 ± 2 | 1014.74 ± 0.3 | 1.31 ± 0.03
4 | CN1CCCC1=O [N-methylpyrrolidone] + CC[NH2+]CC.O=S(=O)([O-])O | – | – | – | 1572 ± 2 | 1025.9 ± 0.3 | 1.66 ± 0.03 | 1552 ± 2 | 1023.74 ± 0.3 | 1.49 ± 0.03 | 1528 ± 2 | 1019.25 ± 0.3 | 1.39 ± 0.03 | 1520 ± 2 | 1014.74 ± 0.3 | 1.31 ± 0.03
5 | CN1CCCC1=O [N-methylpyrrolidone] + CC[NH+](CC)CC.O=S(=O)([O-])O | – | – | – | 1572 ± 2 | 1025.9 ± 0.3 | – | 1552 ± 2 | 1023.74 ± 0.3 | – | 1528 ± 2 | 1019.25 ± 0.3 | 1.39 ± 0.03 | 1520 ± 2 | 1014.74 ± 0.3 | 1.31 ± 0.03
6 | CC(=O)[O-].CC[NH2+]CC [diethylammonium acetate] | 1608 ± 2 | 1021.41 ± 0.32 | 16.36 ± 0.23 | – | – | – | – | – | – | – | – | – | – | – | –
7 | CC[NH2+]CC.O=S(=O)([O-])O [diethylammonium hydrogen sulfate] | 1432 ± 2 | 1283.95 ± 0.61 | 34.1 ± 0.63 | – | – | – | – | – | – | – | – | – | – | – | –
8 | CC(=O)O.CCN(CC)CC [triethylammonium acetate] | 1840 ± 2 | 1015.86 ± 0.32 | 24.14 ± 0.39 | – | – | – | – | – | – | – | – | – | – | – | –
9 | CC[NH+](CC)CC.O=S(=O)([O-])O [triethylammonium hydrogen sulfate] | 1874 ± 2 | 1142.89 ± 0.45 | 235 ± 13 | – | – | – | – | – | – | – | – | – | – | – | –
